Blank lines part the entries; values can stand above or below the compound they belong to.
Key:
rats [1] = assay: MK-801-induced locomotion and stereotypies, animal model of psychosis; format: in vivo, rat; settings: male Wistar rats; 1.0, 2.5 and 5.0 mg/kg i.p.; 0.3 mg/kg MK-801 i.p.
Description: The non-competitive NMDA receptor antagonist MK-801 induces stereotypies and hyperactivity in rodents (see: Carlsson, M. and Carlsson, A., J. Neural Transm., 75, 221 (1989)) by interacting with the NMDA receptor-associated ion channel. Phencyclidine, which also interferes with the NMDA receptor, produces psychotic effects in humans similar in many respects to schizophrenia. […] The neuroleptics haloperidol, clozapine and raclopride are able to reverse the behavioral changes induced by MK-801 in rats (Gattaz, W. F., Schummer, B. and Behrens, S., J. Neural Transm., 96, 227 (1994)). Therefore the MK-801-induced activity and stereotypies in rats may represent an appropriate animal model to test the potential efficacy of antipsychotic drugs.
Male Wistar rats (Iffa Credo, St Germain/l'Arbresle, France), weight 250-300 g were housed 2 per cage on a 12 h/12 h light dark cycle (lights on at 7.00 a.m.) at a room temperature of 21±2° C. for a minimum of 5 days before testing. All animals had access to commercial food and tap water ad libitum. […]
On the day of the experiment, rats were treated with either reference drug vehicle, the reference drugs haloperidol or clozapine the test compound vehicle or test compounds. […] Stereotypies, defined as wall-contacts with the snout, and locomotion, defined as turn-rounds of 180°, were assessed during 5 minute periods.

Sigma-1 (human) = Sigma-1 (human) (Homo sapiens, UniProt Q99720); assay: sigma-1 radioligand binding screen
Chain of Sigma-1 (human) (Q99720 whole entry): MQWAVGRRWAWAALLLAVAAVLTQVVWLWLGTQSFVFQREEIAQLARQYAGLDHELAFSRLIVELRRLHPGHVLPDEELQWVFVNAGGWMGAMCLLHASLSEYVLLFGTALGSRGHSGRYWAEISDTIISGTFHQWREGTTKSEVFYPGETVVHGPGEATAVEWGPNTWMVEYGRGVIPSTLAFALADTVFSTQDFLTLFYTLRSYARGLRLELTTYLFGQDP
Description: (§1) The NMDA receptor (PCP site) screen was conducted according to Goldman, M. E. et al. FEBS Letters 85, […]. The norepinephrine transporter screen was conducted according to Galli A et al. J. Exp. Biol. 1995, 198, 2197. The dopamine and serotonin transporter screens were conducted according to Gu, H. et al. J. Biol. Chem. 1994, 269(10), 7124. The sigma-1 screen was conducted according to de Costa B. R. FEBS 1989, 251, 53.

[2] = tail flick model (in vivo analgesia); settings: iv; administered intravenously
Description: (§2) The acetic acid writhing model was conducted according to Inoue K. et al. Arzneim. Forsch 1991, 41(I), 235. The formalin model was conducted according to Hunskaar, S. et al. J. Neurosci Meth. 1985, 14, 69. The tail flick model was conducted according to D'Amour F. E. and Smith D. L. J. Pharmacol. Exp. Ther. 1941, 72, 74. Compound 6 was administered intravenously.

[3] = acetic acid writhing model (in vivo analgesia); settings: iv; administered intravenously
Description: as §2

[4] = formalin model (in vivo analgesia); settings: iv; administered intravenously
Description: as §2

rats [5] = assay: learned helplessness test in rats; format: in vivo, rat; settings: male Wistar rats; dose of 5 mg/kg i.p.
Description: The objective of this study was to evaluate the potential antidepressant activity of compounds in the learned helplessness test in rats.
Male rats (Wistar, Iffa Credo, St.-Germain/1″Arbresle, France) with initial weight of 180-200 g at the beginning of the experiments were housed 3 per cage under dark cycle of 12 h-12 h (light on at 7:00 a.m., off at 7:00 p.m.) at a room temperature of 21±1° C., with a minimum 50% humidity, for a minimum of 7 days before the experiments. They had free access to commercial rat chow (UFAC, Vigney, France, ref 811002) and tap water. The learned helplessness test included two phases over 5 days.
Phase 1: Helplessness induction
On day 1, inescapable electric foot-shocks were delivered individually to rats in a Plexiglas chamber (20 cm×16 cm×16 cm [1×w×h]) with a floor consisting of stainless-steel rods. A constant-current shocker (LETICA LI 100-26, Barcelona, Spain) was used to deliver inescapable shocks (0.8 m A scrambled DC current; 10 s duration every 20 s) over 60 minutes. “Non-helplessness” control rats were placed for 1 h in identical chambers without shocking.
Phase 2: Conditional Avoidance Training
Avoidance training in automated two-way shuttle-box (LETICA LI916, Barcelona, Spain) took place on day 3, 4, and 5. The shuttle-box is divided into two equal-sized chambers connected by a 10×10 cm opening. […]

NMDA (PCP site) = assay: NMDA receptor (PCP site) radioligand binding screen
Description: as §1

NE Transporter = NE Transporter (Homo sapiens, UniProt P23975); assay: norepinephrine transporter radioligand binding screen
Chain of NE Transporter (P23975 whole entry): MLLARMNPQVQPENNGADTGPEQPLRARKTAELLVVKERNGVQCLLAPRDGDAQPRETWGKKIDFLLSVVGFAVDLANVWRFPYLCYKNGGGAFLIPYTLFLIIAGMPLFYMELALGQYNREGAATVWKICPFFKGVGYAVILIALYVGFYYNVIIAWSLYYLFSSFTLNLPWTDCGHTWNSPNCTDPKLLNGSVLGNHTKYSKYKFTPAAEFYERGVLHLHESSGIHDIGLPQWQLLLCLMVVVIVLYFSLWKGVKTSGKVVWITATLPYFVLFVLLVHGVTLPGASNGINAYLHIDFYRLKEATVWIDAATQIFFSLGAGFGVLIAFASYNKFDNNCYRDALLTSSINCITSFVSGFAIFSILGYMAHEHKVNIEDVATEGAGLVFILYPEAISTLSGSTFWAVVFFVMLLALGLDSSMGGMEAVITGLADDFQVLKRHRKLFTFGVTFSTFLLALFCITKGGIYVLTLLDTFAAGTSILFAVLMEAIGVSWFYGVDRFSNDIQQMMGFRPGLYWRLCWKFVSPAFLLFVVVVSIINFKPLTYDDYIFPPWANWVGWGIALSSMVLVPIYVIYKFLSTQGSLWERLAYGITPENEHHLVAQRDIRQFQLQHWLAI
Description: as §1

5-HT Transporter = 5-HT Transporter (UniProt P31645); assay: serotonin transporter radioligand binding screen
Description: as §1

- IC50 (Sigma-1 (human)): 22 nM
SMILES: CS(=O)(=O)N(C[C@H]1CCCN(CCc2ccccc2)C1)c1ccccc1 [Compound 16, (S)-N-(1-phenethyl-pieridin-3-ylmethyl)-N-phenyl-methanesulfonamide]
- MK-801-induced locomotion (rats [1]): dose-dependent reduction
- MK-801-induced stereotypies (rats [1]): dose-dependent reduction

- IC50 (Sigma-1 (human)): 550 nM
SMILES: CS(=O)(=O)N(C[C@@H]1CCCN(CCc2ccccc2)C1)c1ccccc1 [Compound 12, (R)-N-(1-phenethyl-pieridin-3-ylmethyl)-N-phenyl-methanesulfonamide]

- IC50 (Sigma-1 (human)): 118 nM
SMILES: CS(=O)(=O)N(CC1CCCN(CCc2ccccc2)C1)c1ccccc1 (racemic) [Compound 6, N-(1-phenethyl-pieridin-3-ylmethyl)-N-phenyl-methanesulfonamide]
- ED50 [2]: 23 mg/kg
- ED50 [3]: 7.8 mg/kg
- ED50 [4]: 18 mg/kg
- activity in the learned helplessness test (rats [5]): active

- IC50 (NMDA (PCP site)): 108 nM
SMILES: CS(=O)(=O)N(CC1CCCNC1)c1ccccc1 (stereo not drawn) [Compound 5, N-phenyl-N-piperidin-3-ylmethyl-methanesulfonamide]

SMILES: CS(=O)(=O)N(C[C@@H]1CCCN(CC2(c3ccc(Cl)cc3)CCC2)C1)c1ccccc1 [Compound 21, N-{1-[1-(4-Chloro-phenyl)-cyclobutylmethyl]-piperidin-3-R-ylmethyl}-N-phenyl-methanesulfon-amide]
- IC50 (NE Transporter): 62 nM
- IC50 (5-HT Transporter): 2800 nM

— US6872716B2, “Antipsychotic sulfonamide-heterocycles, and methods of use thereof” (Sepracor, Inc., priority 2000, dated 2005)
